In patent US20230218589A1, “COMPOUND FOR PREVENTION OR TREATMENT OF A SKIN CANCER OR SKIN PRECANCER” (UNIQUEST PTY LTD, priority 2020, published 2023):

How the values were obtained:
actinic keratoses (AKs) = conditions: topical therapy, organ transplant recipients (Heppt et al. 2019); cited from earlier work
human T cells = experiment: Human T cell proliferation assay (PBMCs, anti-CD3, CellTiter-Glo); type: cell-based; conditions: 50 ng/mL cyclosporine A, anti-CD3, 5 days
Procedure: Cyclosporine A 1 mg/mL stock (CsA—Sigma) was dissolved in DMSO, Rapamycin 5 mg/mL stock (LC Labs) was dissolved in ethanol.
Under sterile conditions, a 96 well flat bottom plate with white opaque walls (Perkin Elmer) was coated with 10 μg per well of purified human anti-CD3 antibody (clone OKT-3; Biolegend) in a volume of 50 μL per well in sterile PBS. The plate was covered in parafilm and incubated overnight at 4° C. Just prior to addition of Peripheral Blood Mononuclear Cells (PBMCs), the antibody solution was removed and discarded using a multichannel pipette. Wells were washed by adding 200 μL sterile PBS to each well and incubating for 2 min. PBS wash solution was removed and discarded following incubation. The wash step was repeated once, for a total of two PBS washes.
20 mL of blood from a consenting healthy volunteer was collected into lithium heparin vacuette containers (Greiner Bio-One). Under sterile conditions, blood from each container was pooled into a single tube and mixed thoroughly with 20 mL FACS buffer (2% FBS in 1×PBS). 15 mL Ficoll-Paque (GE Healthcare) was added to two 50 mL Falcon tubes, before 20 mL of whole blood/FACS buffer mixture was carefully and slowly dispensed on top of the Ficoll layer. Tubes were centrifuged at 800 g for 20 min at room temperature with the brake off. After centrifugation, the resulting PBMC layer between the plasma and Ficoll layers was carefully removed and transferred to a new 50 mL Falcon tube. Tubes were topped up to 45 mL with FACS buffer, then centrifuged at 500 g for 15 min. Supernatant was carefully removed without disturbing cell pellet, then PBMCs from both tubes were pooled. 30 mL of pre-warmed complete RPMI media [RPMI 1640 (Gibco), 10% heat inactivated FBS (Gibco), 1× Penicillin/Streptomycin/L-Glutamine (Gibco), 100 μM 2-Mercaptoethanol (Sigma)] was added to PBMCs, before centrifugation at 500 g for 15 min at room temperature. Supernatant was removed carefully without disturbing cell pellet. PBMCs were resuspended in 1 mL complete RPMI media.
PBMCs were counted manually using a haemocytometer and cell concentration was adjusted to 1.5×10^6 cells/mL with complete RPMI media. 50 μL of cell suspension was added to appropriate wells of the 96 well flat bottom plate with white opaque walls pre-coated in human anti-CD3. The final number of cells per well was 7.5×10^4.
Cells were incubated in a humidified incubator at 37° C. with 5% CO2 for 1 hour before Compound 1 (or vehicle only) was diluted in complete RPMI medium and added to the appropriate wells at the concentration required. The final volume in all wells was 100 μL. Cells were incubated for 5 days in a humidified incubator at 37° C. with 5% CO2.
CellTiter-Glo Luminescent Cell Viability Assay (Promega) was performed to determine the level of metabolically active cells per well based on ATP quantification. CellTiter-Glo Buffer and lyophilised CellTiter-Glo Substrate were equilibrated to room temperature. CellTiter-Glo Substrate was reconstituted with 10 mL CellTiter-Glo Buffer and gently vortexed for 1 minute to create the CellTiter-Glo Reagent. The 96 well plate containing PBMCs was equilibrated to room temperature for 30 min. Once at room temperature, 100 μL of CellTiter-Glo Reagent was dispensed using a multichannel pipette into each well containing 100 μL cells and media. The plate was mixed for 2 min at room temperature on an orbital shaker to induce cell lysis. The plate was then incubated for 10 min at room temperature in the dark to stabilize the luminescence signal. Luminescence signal was recorded using a CLARIOstar Plus plate reader (BMG Labtech).
PBMCs were stimulated with human anti-CD3 antibody and T cells were allowed to proliferate at 37° C. with 5% CO2 in a humidified incubator for 5 days. Proliferation/viability was assessed via a CellTiter-Glo Luminescent Cell Viability Assay and luminescence was read using a CLARIOstar Plus plate reader. […]

For `O=c1[nH]cc(F)c(=O)[nH]1` [5-fluorouracil], the “complete clearance rate of AKs” value (actinic keratoses (AKs)) is given as 11%.
In the case of `CC(C)Cn1cnc2c(N)nc3ccccc3c21` [imiquimod], the “complete clearance rate of AKs” value (actinic keratoses (AKs)) is listed as 27.5-62.1%.
With cyclosporine A [reference compound] the “T cell proliferation compared to the vehicle control” value (human T cells) was “inhibited”.
